Reference: paper PMC3412845, “Waking Action of Ursodeoxycholic Acid (UDCA) Involves Histamine and GABAA Receptor Block” (PLoS ONE, 2012)

Experiments:
TGR5 = test system: TGR5; design: method as in PMID 12524422; details: cited from earlier work
[1] = test system: cultured hypothalamic neurons; experiment: Microelectrode array (MEA) recordings of cultured hypothalamic neurons; format: cell-based, mouse
Procedure: Primary dissociated cultures of posterior hypothalamus were prepared from newborn mice according to the protocols previously described, [43]. […] Recordings were done between 11th-21st day after plating. […] Signals from all 60 electrodes were simultaneously sampled at 25 kHz, visualized and stored using the standard software […] provided by Multi Channel Systems. Spike detection and analysis was performed offline with the software […] (RESULT Medizinische […], Germany), which uses the agreement coefficient “Cohen's kappa” (κ) to assess the degree of spike and burst synchrony for selected pairs of electrodes. […] In order to describe the distribution of kappa across the whole MEA, we calculated the mean of all kappa-values obtained for pairs of “active” electrodes. At the beginning of experiments the basal medium was replaced by a magnesium-free HEPES-based recording solution (see above) and measurements were started after a 20 min adaptation phase. Every measurement comprised three recordings - control, test substance and washout (second control) - each two minutes long and separated by an intermediate period of 30 seconds.

HDC+/+ mice = experiment: Polygraphic (EEG/EMG) sleep-wake recording in wild type mice; format: in vivo, mouse
Procedure: Animal experiments were conducted according to the Animal Protection Law of the Federal Republic of Germany and the local guidelines (Bezirksregierung Duesseldorf) and were in accordance with the European Communities Council directive regarding care and use of animals for experimental procedures (86/609/EEC). The general protocol of sleep-wake recording and experiment in the mouse was approved by the ethic committee of Claude Bernard University of Lyon. All efforts were made to minimize the number of animals and their suffering. At the age of 12 weeks and with a body weight of 30±2 g HDC wild type and knockout mice used for EEG and sleep-wake studies were chronically implanted, under deep gas anesthesia using isoflurane (2%, 200 ml/min) and a TEM anesthesia system (Bordeaux, France), with six cortical electrodes (gold-plated tinned copper wire, Ø = 0.4 mm, Filotex, Draveil, France) and three neck muscle electrodes (fluorocarbon-coated gold-plated stainless steel wire, Ø = 0.03 mm, Cooner Wire Chatworth, CA, U.S.A.) to record the electroencephalogram (EEG) and electromyogram (EMG) and to monitor the sleep-wake cycle. Finally, the electrode assembly was anchored and fixed to the skull with Super-Bond (Sun Medical Co., Shiga, Japan) and dental cement. This implantation allows stable and long-lasting polygraphic recordings.
After surgery, the animals were housed individually in barrels placed in an insulated sound-proof recording room maintained at an ambient temperature of 22±1°C and on a 12 h light/dark cycle (lights-on at 7 a.m.), standard food and water being available ad libitum. After a 7-days recovery period, mice were habituated to the recording cable for 7 days before polygraphic recordings were started. Cortical EEG (contralateral frontoparietal leads) and EMG signals were amplified, digitized with a resolution of 256 and 128 Hz, respectively, and computed on a CED 1401 Plus (Cambridge, UK). Using a Spike2 script and with the assistance of spectral analysis using the fast Fourier transform, polygraphic records were visually scored by 30-sec epochs for wakefulness (W), slow wave sleep (SWS), and paradoxical sleep (PS) according to previously described criteria validated for mice.
Animals were subjected to 12 h sleep-wake recordings following administration of URSOFALK (clinically used UDCA, 32 mg/kg) through the oral route (per os) at 10 a.m. (during the sleepy period) or at 7 p.m. (during the active period). Each animal received twice single dose of UDCA and twice equal volume of vehicle. There was an interval of 7 days between any two administrations. UDCA or vehicle was applied at random. The waking, slow wave sleep or paradoxical sleep amounts were compared between vehicle and UCDA within the same animal, the differences being averaged within the groups. […]

[2] = design: method as in PMID 11248487; details: volunteers (men), single oral dose ∼12 mg/kg; cited from earlier work
α1β1γ2L GABAA receptors = biological target: T1, α1β1γ2L GABAA receptors (UniProt P15431+P22723+P62813); experiment: Patch-clamp of recombinant α1β1γ2L GABAAR in HEK293 cells; format: cell-based, rat α1, rat β1, mouse γ2L
T1 construct: expressed in transfected cells; host or cells: HEK293
Procedure: (§1) HEK 293 cells were obtained from DSM (Deutsche Sammlung von Mikroorganismen und Zellkulturen GmbH, DSM, Braunschweig). They were grown and maintained according to published standard protocols. Briefly, cells were grown in minimal essential medium supplemented with 10% fetal bovine serum, 100units/ml penicillin and streptomycin and 2 mM L-glutamine and splitted once per week. Semiconfluent cells were transfected on the third day after splitting with the help of Lipofectamine 2000 (Invitrogen), recordings were done 48–72 hrs after transfection.
(§2) The GABAAR subunit cDNAs, generously donated by G.Gisselmann (rat α1, mouse γ2L, rat β1, β2 and human β3 [26]) and J.H. Steinbach (rat α1V256S [28] and rat α1Q241L [44]), were subcloned into pcDNA3 (Invitrogen, Karlsruhe, Germany) and applied in a ratio 1∶1∶1 for the α1βxγ2L receptor and 1∶1 for α1β3 or β3γ2L receptors. […] For each receptor type patch clamp recordings were obtained from at least three separate transfections. Whole-cell patch clamp recordings were done in a similar extracellular solution as for the native cells (see above) except that the concentration of MgCl2 was reduced to 1.2 mM. Intracellular electrodes contained 140 mM CsCl (instead of KCl), pH adjusted with CsOH. The voltage was held at −40 mV.

α1β3 GABAA receptors = biological target: T2, α1β3 GABAA receptors (UniProt P28472+P62813); experiment: Patch-clamp of recombinant α1β3 GABAAR in HEK293 cells; format: cell-based, rat α1, human β3
T2 construct: expressed in transfected cells; host or cells: HEK293
Procedure: as §1, §2

[3] = biological target: T3, α1V256Sβ2γ2L GABAA receptors (UniProt P22723+P62813+P63138, V283S); experiment: Patch-clamp of mutant α1V256Sβ2γ2L GABAAR in HEK293 cells; format: cell-based, rat α1V256S, rat β2, mouse γ2L
T3 construct: expressed in transfected cells; host or cells: HEK293
Procedure: as §1, §2

[4] = UDCA 32 mg/kg per os at 7 p.m., vs vehicle

T3 sequence (P62813 28-455 V283S): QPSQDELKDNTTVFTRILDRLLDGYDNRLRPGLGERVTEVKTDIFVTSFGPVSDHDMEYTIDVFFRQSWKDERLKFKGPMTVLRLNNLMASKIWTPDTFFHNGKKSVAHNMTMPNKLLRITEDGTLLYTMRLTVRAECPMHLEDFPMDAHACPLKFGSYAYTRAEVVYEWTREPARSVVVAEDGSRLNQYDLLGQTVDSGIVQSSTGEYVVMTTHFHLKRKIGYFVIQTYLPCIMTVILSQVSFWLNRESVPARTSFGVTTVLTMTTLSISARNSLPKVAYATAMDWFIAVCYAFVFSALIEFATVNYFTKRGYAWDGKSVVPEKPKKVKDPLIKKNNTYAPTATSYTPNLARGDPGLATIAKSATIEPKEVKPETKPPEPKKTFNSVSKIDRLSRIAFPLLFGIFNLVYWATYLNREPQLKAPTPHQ
T3 sequence (P63138 25-474 limits assumed): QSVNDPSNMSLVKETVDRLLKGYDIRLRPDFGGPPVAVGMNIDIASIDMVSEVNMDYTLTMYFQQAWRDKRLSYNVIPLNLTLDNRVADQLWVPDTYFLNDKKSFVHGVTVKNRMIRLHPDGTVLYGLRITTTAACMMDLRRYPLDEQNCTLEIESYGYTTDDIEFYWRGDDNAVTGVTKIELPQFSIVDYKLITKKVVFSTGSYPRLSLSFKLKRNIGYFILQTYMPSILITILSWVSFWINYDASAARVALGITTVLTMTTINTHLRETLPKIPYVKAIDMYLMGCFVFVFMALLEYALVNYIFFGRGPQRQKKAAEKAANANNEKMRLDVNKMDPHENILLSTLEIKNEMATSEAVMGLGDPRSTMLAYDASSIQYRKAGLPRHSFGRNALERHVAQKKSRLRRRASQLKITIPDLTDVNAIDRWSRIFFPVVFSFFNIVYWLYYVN
T3 sequence (P22723 39-474): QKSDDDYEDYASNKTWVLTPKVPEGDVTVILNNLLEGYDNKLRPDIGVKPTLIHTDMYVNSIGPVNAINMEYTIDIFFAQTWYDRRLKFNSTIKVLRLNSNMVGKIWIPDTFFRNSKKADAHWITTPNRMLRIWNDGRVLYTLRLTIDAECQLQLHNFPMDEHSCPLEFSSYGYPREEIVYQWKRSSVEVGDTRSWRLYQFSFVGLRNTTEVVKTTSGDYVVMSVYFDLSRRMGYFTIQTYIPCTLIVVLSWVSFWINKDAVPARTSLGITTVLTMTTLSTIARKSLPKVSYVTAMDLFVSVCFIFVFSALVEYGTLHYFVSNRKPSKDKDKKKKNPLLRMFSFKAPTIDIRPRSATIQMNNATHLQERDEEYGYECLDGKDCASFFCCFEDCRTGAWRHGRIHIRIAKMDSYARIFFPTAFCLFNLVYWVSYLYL
T2 sequence (P62813 28-455): as the sequence (P62813 28-455 V283S) above, with S256V counted along it
T2 sequence (P28472 26-473): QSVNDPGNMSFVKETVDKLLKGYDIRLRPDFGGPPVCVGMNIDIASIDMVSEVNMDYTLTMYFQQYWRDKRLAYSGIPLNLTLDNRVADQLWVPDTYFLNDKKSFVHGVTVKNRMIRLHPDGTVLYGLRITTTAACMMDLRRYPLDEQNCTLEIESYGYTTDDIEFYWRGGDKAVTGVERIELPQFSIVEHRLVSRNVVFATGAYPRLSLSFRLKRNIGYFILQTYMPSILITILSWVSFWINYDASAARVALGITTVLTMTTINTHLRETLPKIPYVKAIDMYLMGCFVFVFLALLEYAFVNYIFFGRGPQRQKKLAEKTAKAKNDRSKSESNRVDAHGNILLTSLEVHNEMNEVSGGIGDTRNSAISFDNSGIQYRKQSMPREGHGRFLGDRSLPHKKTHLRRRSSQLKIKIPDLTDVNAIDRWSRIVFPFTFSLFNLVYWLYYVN
T1 sequence (P62813 28-455): as the sequence (P62813 28-455 V283S) above, with S256V counted along it
T1 sequence (P15431 26-474): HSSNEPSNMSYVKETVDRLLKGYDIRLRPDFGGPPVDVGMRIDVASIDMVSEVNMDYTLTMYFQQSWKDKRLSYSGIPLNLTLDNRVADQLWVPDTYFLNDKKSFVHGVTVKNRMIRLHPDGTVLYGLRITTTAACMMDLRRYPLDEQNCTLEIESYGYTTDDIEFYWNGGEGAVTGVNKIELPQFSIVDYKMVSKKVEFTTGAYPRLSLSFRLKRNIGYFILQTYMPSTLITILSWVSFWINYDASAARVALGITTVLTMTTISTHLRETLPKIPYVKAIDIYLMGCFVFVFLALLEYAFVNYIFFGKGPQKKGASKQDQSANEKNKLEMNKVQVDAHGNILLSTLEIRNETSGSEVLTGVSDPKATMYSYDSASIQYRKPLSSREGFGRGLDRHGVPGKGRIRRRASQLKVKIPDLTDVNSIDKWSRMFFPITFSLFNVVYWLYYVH
T1 sequence (P22723 39-474): as the sequence (P22723 39-474) above

SMILES: C[C@H](CCC(=O)O)[C@H]1CC[C@H]2[C@@H]3[C@@H](O)C[C@@H]4C[C@H](O)CC[C@]4(C)[C@H]3CC[C@]12C [UDCA, ursodeoxycholic acid]
- sensitivity of TGR5 to UDCA (TGR5): rather insensitive
- synchronicity of firing within the hypothalamic network (Cohen's kappa) ([1]; UDCA): increased
- firing frequency ([1]; UDCA 10, 30 or 100 µM): not affected
- effect on synchronization in the presence of gabazine ([1]; with GABAA receptor antagonist gabazine): abolished
- UDCA-induced synchronization of firing with mifepristone and spironolactone ([1]; with mifepristone 10 µM and spironolactone 10 µM): not affected
- sleep wake states (HDC+/+ mice; 32 mg/kg orally at 10 a.m. (quiet period)): did not affect
- waking (HDC+/+ mice; UDCA 32 mg/kg per os at 7 p.m. (active period), vs vehicle, n = 11): significantly increased
- amount of paradoxical sleep (PS) (HDC+/+ mice; [4]): decreased
- amount of slow wave sleep (SWS) (HDC+/+ mice; [4]): decreased
- serum peak UDCA concentration [2]: ~18 ± 10 µM
- IC50 (α1β1γ2L GABAA receptors): 96 ± 17 µM
- Hill coefficient nH of UDCA block (α1β3 GABAA receptors; maximal GABA): 0.65
- IC50 (α1β3 GABAA receptors; read-out: IC50 of block of GABA-evoked steady-state currents): 81 µM
- relative amplitude of maximal GABA-responses ([3]; UDCA 100 µM, n = 5): 87±1 % of control
- IC50 ([3]; n = 4): 330 ± 41 µM
